Test results from patent US4255183A, “Substituted phenyl urea and herbicides for use in paddy field” (Hokko Chemical Industry Co., Ltd., priority 1977, dated 1981).
Where two headings read alike, the source gives them in different places.

Columns and labels:
[1] = system: Echinochloa crus-galli var. oryzicola; assay: Test Example 2: concrete pot test on killing effect, Echinochloa crus-galli var. oryzicola; format: in vivo; details: Echinochloa crus-galli, 720 h, granule, 30 days after treatment; for inhibition at 1000 g/ha: 100 g/10 are; for inhibition at 3000 g/ha: 300 g/10 are; for inhibition at 9000 g/ha: 900 g/10 are
Method in brief: (§1)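 Barnyardgrass seeded in flooded alluvial paddy soil (~3 cm water) in concrete pots, with 2.5-leaf Asahi rice transplanted before weed emergence. Granules applied at weed 1-leaf or 5-leaf stage. Dry weights measured 30 days after treatment; inhibition rate calculated versus untreated area.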

Bulrush = assay: Test Example 5: Wagner pot test, herbicidal effect on Bulrush; format: in vivo
Protocol: (§2) In a 1/7500 are Wagner pot, sieved paddy field soil (alluvial soil) was charged. Thereafter, in the center portion of the pot, 2 roots of paddy rice (Asahi species) at the 2- to 3-leaf stage were transplanted and 20 seeds of Bulrush per pot were seeded in the surface of the above soil. The pot was submerged at the depth of about 2 cm. The other Dopatrium junceum and umbrella plant were generated naturally. After seeding, when each of the weeds reached the same leaf age as defined in Table 5 given herein, a predetermined concentration of the emulsion prepared according to Example 4 was applied dropwise on the surface of the pot. The test was carried out by repeating the same test three times per area and the results were determined 20 days after the application of the chemicals with regard to the herbicidal effect and chemical injury on paddy rice on the basis of the evaluation index as shown below.
(§3) As the comparative chemicals Molinate, Benthiocarb and DCMU, those commercially available were used.
(§4) In the above table, the inhibition rate was calculated according to the method as described in Test Example 1.

[2] = system: Echinochloa crus-galli var. oryzicola; assay: Test Example 1: pot test on selectivity, inhibition of Echinochloa crus-galli var. oryzicola; format: in vivo; details: for inhibition at 750 g/ha / inhibition at 1500 g/ha / inhibition at 3000 g/ha / inhibition at 6000 g/ha / inhibition at 9000 g/ha: Echinochloa crus-galli, 720 h; for inhibition at 1500 g/ha: 150 g/10 are; for inhibition at 3000 g/ha: 300 g/10 are; for inhibition at 6000 g/ha: 600 g/10 are; for inhibition at 9000 g/ha: 900 g/10 are; for activity for killing Echinochloa spp.: trans-form, cis-form and mixtures compared
Method in brief: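 Inhibition rate was calculated from weed and rice dry weight relative to untreated pots, measured 30 days after treatment. The emulsion, at predetermined concentrations, was applied dropwise to flooded (~1 cm) paddy-soil pots sown with Echinochloa crus-galli var. oryzicola and rice, at the weed's one-leaf and five-leaf stages.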

Dopatrium junceum = assay: Test Example 5: Wagner pot test, herbicidal effect on Dopatrium junceum; format: in vivo
Protocol: as §2, §3, §4

Acute oral toxicity = details: in vivo, SD-strain rat
Protocol: (§5) Acute oral toxicity LD50 value of the compound of the invention measured on SD-strain rat is more than 2,000 mg/Kg for any of the trans-form, cis-form and a mixture thereof in equal amount and further acute fish toxicity TLm value (as defined by Official Standard issued from Ministry of Agriculture & Forestry) measured on young carp is more than 20 ppm for any of the above compounds.

[3] = system: Echinochloa crus-galli var. oryzicola; assay: Test Example 3: field test in transplanted paddy field, Echinochloa crus-galli var. oryzicola; format: in vivo; details: Echinochloa crus-galli, 1440 h; 300 g/10 are, granule, applied at 4-leaf stage, examined 60 days after transplantation; read-out: Inhibition (%) of E. crus-galli var. oryzicola
Protocol: (§6) In a Wagner pot of 1/500 are, paddy field soil (alluvial soil) was placed and 50 seeds of Echinochloa crus-galli var. oryzicola and 30 seeds of paddy rice were seeded in the surface layer of said soil and the submerging depth was kept at about 1 cm. When Echinochloa crus-galli var. oryzicola reached at the one leaf stage and 5-leaf stage, the emulsion of a predetermined concentration, prepared according to Example 4 was added dropwise. After 30 days from the treatment with the chemical, dry weights of Echinochloa crus-galli var. oryzicola and paddy rice were measured and the inhibition rate was calculated with reference to untreated area. [formula]
In a 10 m^2 paddy field, young seedlings of paddy rice (Asahi species) at the 2,5-leaf stage were transplanted 30 days after the puddling the submerging at the depth of 3-5 cm. 25 Days after the transplantation, when Echinochloa crus-galli var. oryzicola reached 4-leaf stage, a predetermined dose of the granule prepared according to Example 1 was applied. Test results were examined 60 days after the transplantation of paddy rice in the similar manner as in Test Example 1.
Comparative chemicals used were all those commercially available and in the case of the comparative chemical 2, CNP was applied 3 days after the transplantation of paddy rice and after 25 days a mixture of Benthiocarb and Simetryne was applied.

paddy rice = assay: whole plant or invertebrate; format: in vivo, paddy rice (Asahi species); details: Oryza sativa, 720 h, granule, 30 days; for inhibition at 1000 g/ha: 100 g/10 are; for inhibition at 3000 g/ha: 300 g/10 are; for inhibition at 9000 g/ha: 900 g/10 are
Method in brief: as §1

Acute fish toxicity = details: in vivo; young carp, Official Standard of Ministry of Agriculture & Forestry; read-out: acute fish toxicity TLm
Protocol: as §5

[4] = system: Echinochloa crus-galli var. oryzicola; assay: Test Example 4: field test in submerged directly seeded paddy field, Echinochloa crus-galli var. oryzicola; format: in vivo; details: Echinochloa crus-galli, 504 h; 300 g/10 are, emulsion, 2- to 3-leaf stage, 21 days after application; read-out: Inhibition (%) of E. crus-galli var. oryzicola
Protocol: as §6
In a 10 m^2 paddy field, 30 g of Echinochloa crus-galli var. oryzicola seeds were seeded at the time of puddling and the depth of submerging was kept at 3-5 cm. 3 Days after the puddling, 50 g of paddy rice at the emergence stage (Asahi species) were seeded. When Echinochloa crus-galli var. oryzicola and paddy rice reached a 2- to 3-leaf stage, a predetermined dose of the emulsion prepared according to Example 4 was applied uniformly by means of a manual spraying machine. Test results were examined 21 days after the application of the chemicals in the similar manner as in Test Example 1.
The comparative chemical 1 used was that commercially available and the comparative chemical 2 used was prepared according to Example 4.

[5] = read-out: Inhibition (%) by treatment at 1-leaf stage of E. crus-galli var. oryzicola, E. crus-galli var. oryzicola
[6] = read-out: Inhibition (%) by treatment at 5-leaf stage of E. crus-galli var. oryzicola, E. crus-galli var. oryzicola
[7] = 300 g/10a, leaf age 3, 20 days after application
[8] = 300 g/10a, leaf age 3-5, 20 days after application
[9] = 600 g/10a, leaf age 3, 20 days after application
[10] = 600 g/10a, leaf age 3-5, 20 days after application
[11] = 300 g/10a, leaf age 2, 20 days after application
[12] = 600 g/10a, leaf age 2, 20 days after application
[13] = rice at 3.5 leaves stage, read-out: Inhibition (%) by treatment at 1-leaf stage of E. crus-galli var. oryzicola, paddy rice
[14] = rice at 7 leaves stage, read-out: Inhibition (%) by treatment at 5-leaf stage of E. crus-galli var. oryzicola, paddy rice
[15] = 75 g/10 are, 1-leaf stage, dry weight 30 days after treatment, read-out: Inhibition (%) by treatment at 1-leaf stage, E. crus-galli var. oryzicola
[16] = 75 g/10 are, 5-leaf stage, dry weight 30 days after treatment, read-out: Inhibition (%) by treatment at 5-leaf stage, E. crus-galli var. oryzicola
[17] = 1-leaf stage, dry weight 30 days after treatment, read-out: Inhibition (%) by treatment at 1-leaf stage, E. crus-galli var. oryzicola
[18] = 5-leaf stage, dry weight 30 days after treatment, read-out: Inhibition (%) by treatment at 5-leaf stage, E. crus-galli var. oryzicola

| Compound | inhibition at 1000 g/ha [1, 5] [%] | inhibition at 1000 g/ha [1, 6] [%] | inhibition at 3000 g/ha [1, 5] [%] | inhibition at 3000 g/ha [1, 6] [%] | inhibition at 9000 g/ha [1, 5] [%] | inhibition at 9000 g/ha [1, 6] [%] | Weed kill degree, Bulrush (Bulrush; [7]) | Weed kill degree, Bulrush (Bulrush; [8]) | Weed kill degree, Bulrush (Bulrush; [9]) | Weed kill degree, Bulrush (Bulrush; [10]) | Weed kill degree, Dopatrium junceum (Dopatrium junceum; [11]) | Weed kill degree, Dopatrium junceum (Dopatrium junceum; [7]) | Weed kill degree, Dopatrium junceum (Dopatrium junceum; [12]) | Weed kill degree, Dopatrium junceum (Dopatrium junceum; [9]) | LD50 (Acute oral toxicity) [mg/kg] | inhibition at 3000 g/ha [3] [%] | inhibition at 1000 g/ha (paddy rice; [13]) [%] | inhibition at 1000 g/ha (paddy rice; [14]) [%] | inhibition at 3000 g/ha (paddy rice; [13]) [%] | inhibition at 3000 g/ha (paddy rice; [14]) [%] | further results |
| --- | --- | --- | --- | --- | --- | --- | --- | --- | --- | --- | --- | --- | --- | --- | --- | --- | --- | --- | --- | --- | --- |
| CC=CCOc1ccc(NC(=O)N(C)C)cc1 [Mixture of trans- and cis-forms 1:1] | 100 | 100 | 100 | 100 | 100 | 100 | 5 (100) | 5 (100) | 5 (100) | 5 (100) | 5 (100) | 5 (100) | 5 (100) | 5 (100) | > 2000 | 100 | 0 | 0 | 0 | 0 | Inhibition (%) by treatment at 1-leaf stage, E. crus-galli var. oryzicola ([2]; 75 g/10 are, 1-leaf stage, dry weight 30 days after treatment): 96%; Inhibition (%) by treatment at 5-leaf stage, E. crus-galli var. oryzicola ([2]; 75 g/10 are, 5-leaf stage, dry weight 30 days after treatment): 83%; inhibition at 9000 g/ha (paddy rice; [13]): 0%; inhibition at 9000 g/ha (paddy rice; [14]): 0%; LC50 (Acute fish toxicity): > 20 µg/mL; inhibition at 3000 g/ha [4]: 100% |
| C/C=C/COc1ccc(NC(=O)N(C)C)cc1 [trans-form, 3-(4-trans-crotyloxyphenyl)-1,1-dimethyl urea] | 100 | 100 | 100 | 100 | 100 | 100 | 5 (100) | 5 (100) | 5 (100) | 5 (100) | 5 (100) | 5 (100) | 5 (100) | 5 (100) | > 2000 | 100 | 0 | 0 | 0 | 0 | inhibition at 750 g/ha [2, 15]: 96%; inhibition at 750 g/ha [2, 16]: 86%; inhibition at 1500 g/ha [2, 17]: 100%; inhibition at 1500 g/ha [2, 18]: 100%; inhibition at 3000 g/ha [2, 17]: 100%; inhibition at 3000 g/ha [2, 18]: 100%; inhibition at 6000 g/ha [2, 17]: 100%; inhibition at 6000 g/ha [2, 18]: 100%; inhibition at 9000 g/ha [2, 17]: 100%; inhibition at 9000 g/ha [2, 18]: 100%; activity for killing Echinochloa spp. [2]: equivalent; inhibition at 9000 g/ha (paddy rice; [13]): 0%; inhibition at 9000 g/ha (paddy rice; [14]): 0%; LC50 (Acute fish toxicity): > 20 µg/mL; inhibition at 3000 g/ha [4]: 100% |
| C/C=C\COc1ccc(NC(=O)N(C)C)cc1 [cis-form, 3-(4-cis-crotyloxyphenyl)-1,1-dimethyl urea] | 100 | 100 | 100 | 100 | 100 | 100 | 5 (100) | 5 (100) | 5 (100) | 5 (100) | 5 (100) | 5 (100) | 5 (100) | 5 (100) | > 2000 | 100 | 0 | 0 | 0 | 0 | inhibition at 750 g/ha [2, 15]: 95%; inhibition at 750 g/ha [2, 16]: 82%; inhibition at 1500 g/ha [2, 17]: 100%; inhibition at 1500 g/ha [2, 18]: 100%; inhibition at 3000 g/ha [2, 17]: 100%; inhibition at 3000 g/ha [2, 18]: 100%; inhibition at 6000 g/ha [2, 17]: 100%; inhibition at 6000 g/ha [2, 18]: 100%; inhibition at 9000 g/ha [2, 17]: 100%; inhibition at 9000 g/ha [2, 18]: 100%; activity for killing Echinochloa spp. [2]: equivalent; inhibition at 9000 g/ha (paddy rice; [13]): 0%; inhibition at 9000 g/ha (paddy rice; [14]): 0%; LC50 (Acute fish toxicity): > 20 µg/mL; inhibition at 3000 g/ha [4]: 100% |
